# Assay results reported in patent US20250091989A1, “SMALL MOLECULE PROTEIN SYNTHESIS MODULATORS” (Interdict Bio, Inc., priority 2023, published 2025).
# Key:
# Type in all cases: biochemical
# Conditions in all cases: HeLa S3 lysate, sfGFP/mCherry ratio, 2 hrs at 30° C.
# MYC = test: In vitro transcription-translation (IVTT) reporter assay, MYC test sequence
# Outline: (§1)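 Coupled transcription-translation in HeLa S3 lysate with reporter plasmids encoding mCherry-P2A-3×FLAG-TEST-sfGFP behind an EMCV IRES. Compounds were half-log titrated (30 μM-0.1 μM in DMSO dilution plate) into master mix, then DNA was added. Reactions ran 2 hrs at 30° C, were PBS-quenched and read for fluorescence.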
# ALK = test: In vitro transcription-translation (IVTT) reporter assay, ALK test sequence
# Outline: as §1
# KRAS G12D = test: In vitro transcription-translation (IVTT) reporter assay, KRAS G12D test sequence
# Outline: as §1
SMILES,IC50 (MYC),IC50 (ALK),IC50 (KRAS G12D)
"COc1ccc(C[C@H]2NC[C@H](O)[C@H]2OC(=O)CNc2c(N)c(=O)c2=O)cc1 [V000215, (2R,3S,4S)-4-hydroxy-2-[(4-methoxyphenyl)methyl]pyrrolidin-3-yl 2-[(2-amino-3,4-dioxocyclobut-1-en-1-yl)amino]acetate]",< 10 µM,< 10 µM,< 10 µM
"COCCOCCOCC(=O)O[C@@H]1[C@@H](O)CN[C@@H]1Cc1ccc(OC)cc1 [V187184, (2R,3S,4S)-4-hydroxy-2-[(4-methoxyphenyl)methyl]pyrrolidin-3-yl 2-[2-(2-methoxyethoxy)ethoxy]acetate]",< 10 µM,< 10 µM,< 10 µM
"COc1ccc(C[C@H]2NC[C@H](O)[C@H]2OC(=O)C2CC3(C2)CC(N(C)C)C3)cc1 (stereo partly drawn) [V187066, (2R,3S,4S)-4-hydroxy-2-[(4-methoxyphenyl)methyl]pyrrolidin-3-yl 6-(dimethylamino)spiro[3.3]heptane-2-carboxylate]",> 30 µM,10 to 20 µM,> 30 µM
"COc1ccc(C[C@H]2NC[C@H](O)[C@H]2OC(=O)C2CC(=O)N2)cc1 (stereo partly drawn) [V186864, (2R,3S,4S)-4-hydroxy-2-[(4-methoxyphenyl)methyl]pyrrolidin-3-yl 4-oxoazetidine-2-carboxylate; trifluoroacetic acid]",10 to 20 µM,< 10 µM,> 30 µM
"COc1ccc(C[C@H]2NC[C@H](O)[C@H]2OC(=O)CC[C@@H]2NC(=O)CNC2=O)cc1 [V000144, (2R,3S,4S)-4-hydroxy-2-[(4-methoxyphenyl)methyl]pyrrolidine-3-yl 3-[(2S)-3,6-dioxopiperazin-2-yl]propanoate]",< 10 µM,< 10 µM,> 30 µM
"CC(=O)O[C@@H]1[C@@H](O)CN[C@@H]1Cc1ccc(Cl)cc1 [V187009, (2R,3S,4S)-2-[(4-chlorophenyl)methyl]-4-hydroxypyrrolidin-3-yl acetate; trifluoroacetic acid]",< 10 µM,< 10 µM,< 10 µM
"COc1ccc(C[C@H]2NC[C@H](O)[C@H]2OC(=O)C2(OCc3ccccc3)CNC2)cc1 [V000192, (2R,3S,4S)-4-hydroxy-2-(4-methoxybenzyl) pyrrolidin-3-yl 3-(benzyloxy)azetidine-3-carboxylate]",> 30 µM,> 30 µM,> 30 µM
"COc1ccc(C[C@H]2NC[C@H](O)[C@H]2OC(=O)Cc2noc(C)n2)cc1 [V187175, (2R,3S,4S)-4-hydroxy-2-[(4-methoxyphenyl)methyl]pyrrolidin-3-yl 2-(5-methyl-1,2,4-oxadiazol-3-yl)acetate; trifluoroacetic acid]",< 10 µM,< 10 µM,< 10 µM
"COc1ccc(C[C@H]2NC[C@H](O)[C@H]2OC(=O)C(C)(C)O)cc1 [V186785, (2R,3S,4S)-4-hydroxy-2-[(4-methoxyphenyl)methyl]pyrrolidin-3-yl 2-hydroxy-2-methylpropanoate]",> 30 µM,< 10 µM,> 30 µM
"CC(=O)O[C@@H]1[C@@H](O)CN[C@@H]1Cc1ccccc1 [V186810, (2R,3S,4S)-2-benzyl-4-hydroxy pyrrolidin-3-yl acetate]",< 10 µM,< 10 µM,< 10 µM
"COc1ccc(C[C@H]2NC[C@H](O)[C@H]2OC(=O)C2CN(C(=O)C3CCOCC3)C2)cc1 [V186989, (2R,3S,4S)-4-hydroxy-2-[(4-methoxyphenyl)methyl]pyrrolidin-3-yl 1-(oxane-4-carbonyl)azetidine-3-carboxylate; trifluoroacetic acid]",> 30 µM,> 30 µM,> 30 µM
COc1ccc(C[C@H]2NC[C@H](O)C2OC(=O)COCc2ccc3nonc3c2)cc1 (stereo partly drawn) [V187179],< 10 µM,< 10 µM,< 10 µM
"COc1ccc(C[C@H]2NC[C@H](O)[C@H]2OC(=O)CCc2cscn2)cc1 [V187173, (2R,3S,4S)-4-hydroxy-2-[(4-methoxyphenyl)methyl]pyrrolidin-3-yl 3-(1,3-thiazol-4-yl)propanoate]",< 10 µM,< 10 µM,< 10 µM
"COc1ccc(C[C@H]2NC[C@H](O)[C@H]2OC(=O)COCc2ccon2)cc1 [V187368, (2R,3S,4S)-4-hydroxy-2-[(4-methoxyphenyl)methyl]pyrrolidin-3-yl 2-(1,2-oxazol-3-ylmethoxy)acetate]",< 10 µM,< 10 µM,< 10 µM
"COc1ccc(C[C@H]2NC[C@H](O)[C@H]2OC(=O)C2CNC2)cc1 [V0107, (2R,3S,4S)-4-hydroxy-2-[(4-methoxyphenyl)methyl]pyrrolidin-3-yl azetidine-3-carboxylate]",> 30 µM,20 to 30 µM,> 30 µM
"COc1ccc(C[C@H]2NC[C@H](O)[C@H]2OC(=O)CCN2CCN(C)CC2)cc1 [V186858, (2R,3S,4S)-4-hydroxy-2-[(4-methoxyphenyl)methyl]pyrrolidin-3-yl 3-(4-methylpiperazin-1-yl)propanoate; trifluoroacetic acid]",> 30 µM,> 30 µM,> 30 µM

SMILES,IC50 (MYC),IC50 (ALK),IC50 (KRAS G12D)
COc1ccc(C[C@H]2NC[C@H](O)[C@H]2OC(=O)CCN2CC(=O)N(C)CC2=O)cc1 [V186850],> 30 µM,20 to 30 µM,> 30 µM
"COc1ccc(C[C@H]2NC[C@H](O)[C@H]2OC(=O)CC2COC2)cc1 [V0111, (2R,3S,4S)-4-hydroxy-2-[(4-methoxyphenyl)methyl]pyrrolidin-3-yl 2-(oxetan-3-yl)acetate]",< 10 µM,< 10 µM,< 10 µM
"COc1ccc(C[C@H]2NC[C@H](O)[C@H]2OC(=O)C2CCS(=N)(=O)CC2)cc1 (stereo partly drawn) [V186712, (2R,3S,4S)-4-hydroxy-2-[(4-methoxyphenyl)methyl]pyrrolidin-3-yl (1 s)-1-imino-1-oxo-1lambda6-thiane-4-carboxylate]",> 30 µM,> 30 µM,> 30 µM
"COc1ccc(C[C@H]2NC[C@H](O)[C@H]2OC(=O)[C@@H]2CCCO2)cc1 [V186825, (2R,3S,4S)-4-hydroxy-2-[(4-methoxyphenyl)methyl]pyrrolidin-3-yl (2S)-oxolane-2-carboxylate]",< 10 µM,< 10 µM,< 10 µM
"COc1ccc(C[C@H]2NC[C@H](O)[C@H]2OC(=O)Cc2nnn[nH]2)cc1 [V187533, (2R,3S,4S)-4-hydroxy-2-[(4-methoxyphenyl)methyl]pyrrolidin-3-yl 2-(1H−1,2,3,4-tetrazol-5-yl)acetate; trifluoroacetic acid]",10 to 20 µM,< 10 µM,> 30 µM
"COc1ccc(C[C@H]2NC[C@H](O)[C@H]2OC(=O)CN)cc1 [V186760, (2R,3S,4S)-4-hydroxy-2-[(4-methoxyphenyl)methyl]pyrrolidin-3-yl 2-aminoacetate]",< 10 µM,< 10 µM,20 to 30 µM
"COc1ccc(C[C@H]2NC[C@H](O)[C@H]2OC(=O)CCC2CNC2)cc1 [V186873, (2R,3S,4S)-4-hydroxy-2-[(4-methoxyphenyl)methyl]pyrrolidin-3-yl 3-(azetidin-3-yl)propanoate]",< 10 µM,< 10 µM,< 10 µM
COc1ccc(C[C@H]2NC[C@H](O)[C@H]2OC(=O)COCc2nnc(C)s2)cc1 [V187720],< 10 µM,< 10 µM,< 10 µM
"COc1ccc(C[C@H]2NC[C@H](O)[C@H]2OC(=O)c2ccc3onc(N)c3c2)cc1 [V000148, (2R,3S,4S)-4-hydroxy-2-[(4-methoxyphenyl)methyl]pyrrolidin-3-yl 3-amino-1,2-benzoxazole-5-carboxylate]",> 30 µM,> 30 µM,> 30 µM
"COc1ccc(C[C@H]2NC[C@H](O)[C@H]2OC(=O)CCN2C(=O)CNC2=O)cc1 [V186870, (2R,3S,4S)-4-hydroxy-2-[(4-methoxyphenyl)methyl]pyrrolidin-3-yl 3-(2,5-dioxoimidazolidin-1-yl)propanoate]",< 10 µM,< 10 µM,10 to 20 µM
"COc1ccc(C[C@H]2NC[C@H](O)[C@H]2OC(=O)C2CN(CC3COC3)C2)cc1 [V186772, (2R,3S,4S)-4-hydroxy-2-[(4-methoxyphenyl)methyl]pyrrolidin-3-yl 1-(oxetan-3-ylmethyl)azetidine-3-carboxylate]",> 30 µM,> 30 µM,> 30 µM
"COc1ccc(C[C@H]2NC[C@H](O)[C@H]2OC(=O)CCN2CCNCC2)cc1 [V186857, (2R,3S,4S)-4-hydroxy-2-[(4-methoxyphenyl)methyl]pyrrolidin-3-yl 3-(piperazin-1-yl)propanoate]",> 30 µM,< 10 µM,> 30 µM
"COc1ccc(C[C@H]2NC[C@H](O)[C@H]2OC(=O)c2ccc(S(=O)(=O)N(C)C)cc2)cc1 [V000198, (2R,3S,4S)-4-hydroxy-2-[(4-methoxyphenyl)methyl]pyrrolidin-3-yl 4-(dimethylsulfamoyl)benzoate]",> 30 µM,> 30 µM,> 30 µM
"COc1ccc(C[C@H]2NC[C@H](O)[C@H]2OC(=O)CCC(F)(F)F)cc1 [V187163, (2R,3S,4S)-4-hydroxy-2-[(4-methoxyphenyl)methyl]pyrrolidin-3-yl 4,4,4-trifluorobutanoate; trifluoroacetic acid]",< 10 µM,< 10 µM,< 10 µM
"COc1ccc(C[C@H]2NC[C@H](O)[C@H]2OC(=O)CCCN2CCNCC2)cc1 [V187694, (2R,3S,4S)-4-hydroxy-2-[(4-methoxyphenyl)methyl]pyrrolidin-3-yl 4-(piperazin-1-yl)butanoate]",< 10 µM,< 10 µM,10 to 20 µM
